Drawing on ChEMBL document CHEMBL2073813, “Regulation of renal oatp mRNA expression by testosterone” (Am J Physiol, 1996), this text covers Activity for two compounds.

Data set [1] has as its target T1, Solute carrier organic anion transporter family member 1A1 (Rattus norvegicus, UniProt P46720).
T1 sequence (P46720 whole entry): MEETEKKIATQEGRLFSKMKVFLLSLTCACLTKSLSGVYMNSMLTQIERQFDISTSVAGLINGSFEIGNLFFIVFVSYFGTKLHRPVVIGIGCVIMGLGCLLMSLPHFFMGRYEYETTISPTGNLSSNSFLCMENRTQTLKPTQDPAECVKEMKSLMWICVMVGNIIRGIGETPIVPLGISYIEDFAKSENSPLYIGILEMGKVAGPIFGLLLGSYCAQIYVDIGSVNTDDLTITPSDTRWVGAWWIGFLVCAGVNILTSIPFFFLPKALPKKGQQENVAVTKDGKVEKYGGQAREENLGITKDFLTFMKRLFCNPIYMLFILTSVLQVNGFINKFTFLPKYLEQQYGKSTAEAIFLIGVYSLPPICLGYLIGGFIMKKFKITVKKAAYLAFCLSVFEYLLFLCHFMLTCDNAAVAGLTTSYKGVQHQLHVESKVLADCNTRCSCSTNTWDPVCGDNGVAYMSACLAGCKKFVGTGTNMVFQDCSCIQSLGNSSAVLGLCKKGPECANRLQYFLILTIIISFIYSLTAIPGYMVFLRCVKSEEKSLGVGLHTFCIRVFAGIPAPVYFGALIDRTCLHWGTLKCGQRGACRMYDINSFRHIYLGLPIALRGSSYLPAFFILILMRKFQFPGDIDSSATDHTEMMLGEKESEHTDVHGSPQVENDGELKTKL
As to the kind of experiment: TP_TRANSPORTER: Northern blot. The data set is classed as functional.

Data set [2] addresses T1, Solute carrier organic anion transporter family member 1A1. As to the kind of experiment: TP_TRANSPORTER: Northern blot in vivo, kidney of SD rat. The data set is classed as functional, organism-based, Sprague-Dawley.

For the compound `C[C@]12CC[C@@H]3c4ccc(O)cc4CC[C@H]3[C@@H]1CC[C@@H]2O` [ESTRADIOL], in data set [1], the Activity result is “inducer [+]”. With `C[C@]12CC[C@H]3[C@@H](CCC4=CC(=O)CC[C@@]43C)[C@@H]1CC[C@@H]2O` [TESTOSTERONE], in data set [2], the Activity result is “inducer [+]”.
